Among the data in the NIST ThermoML archive (doi:10.1021/je200673a) are Triple point temperature values, retold here.

The conditions of this data set: Crystal; Adiabatic calorimetry.

± gives the expanded uncertainty stated by the source.

On to `C(#Cc1ccccc1)c1ccccc1` [1,2-diphenylethyne], for which the Triple point temperature is given as 332.02 ± 0.05 K.
